In assay [1] the test system is animal model of alcohol dependence. The assay can be described thus: Operant alcohol and water self-administration in alcohol vapor-dependent and nondependent rats (Study 2). Format: in vivo, rat. Particulars: for alcohol self-administration (g/kg intake): 0, 5, 10, 20 mg/kg. An excerpt: The effect of MPZP on drinking behavior was studied in an established animal model of alcohol dependence. […] (2006) 26:11324-11332; see also Roberts et al., Alcohol Clin. Exp. Res. (1996) 20:1289-1298; Overstreet et al., Alcohol Clin. Exp. Res. (2002) 26:1259-1268; Rimondini et al., FASEB J. (2002) 16:27-35; Valdez et al., Alcohol Clin. Exp. Res. (2002) 26:1494-1501 for related models].
Animals were permitted to self-administer alcohol or water orally in a concurrent, two-lever, free-choice contingency. A continuous reinforcement (fixed ratio-1) schedule was used in which each lever press was reinforced. Animals acquired alcohol self-administration using a variation of the previously described saccharin fading free-choice operant conditioning protocol [Samson et al., Alcohol Clin. Exp. Res. (1986) 10:436-442].
The present procedure culminates in pharmacologically relevant levels of alcohol self-administration, as defined by blood alcohol levels (BALs), in nondependent animals with limited access to alcohol over a 6-week period [Roberts et al., Alcohol Clin. Exp. Res. (1999) 23:1151-1157]. The modified procedure in the present study utilized a sweetened solution (“supersac”) containing 3% glucose and 0.125% saccharin (Sigma, St. Louis, Mo.) instead of water restriction and 0.2% saccharin to initiate and maintain operant responding [Funk et al., J. Neurosci. (2006) 26:11324-11332].
Animals respond for the sweetened solution within 1-2 training sessions, making water restriction unnecessary. Operant sessions during training were conducted 5 days per week between 0900 and 1500 (lights on at 0600). Operant sessions were 30 minutes in duration, except during the initial days of training in which sessions lasted up to 2 hours to permit acquisition of responding for the sweetened solution. Alcohol (10% w/v) then was added to the sweetened solution, and once mean responding stabilized (around one week) the glucose was removed from the solution, leaving only 0.125% saccharin and 10% w/v ethanol.
Animals then were maintained on 10% w/v ethanol for at least 3 weeks, and stable responders (±25% across three consecutive sessions) were evenly divided into two groups matched for baseline responding and exposed to intermittent ethanol vapors (dependent) or air (nondependent) as described below. A total of 16 rats (dependent, n=8; nondependent, n=8) were used for this experiment.
The self-administration system comprised test chambers (Coulbourn Instruments, Allentown, Pa.) contained within wooden sound-attenuated ventilated cubicles. The test chambers were equipped with two retractable levers located 4 cm above the grid floor and 4.5 cm to either side of a small stainless steel receptacle containing two drinking cups. […] Tap water was delivered to one dish, and the experimental solution (e.g., sweetened solution or alcohol) was delivered to the other dish. Fluid delivery and recording of operant self-administration were controlled by a computer. Lever presses were not recorded during the 0.5 second inter-response time-out interval when solution was being delivered.
A recent modification of the alcohol dependence model was made to reflect the natural progression of alcohol dependence in which alcohol exposure occurs in a series of extended exposures followed by periods of withdrawal [O′Dell et al., Alcohol Clin. Exp. Res. (2004) 28:1676-1682]. Chronic exposure to intermittent alcohol vapor exposure elicits even higher alcohol self-administration than continuous vapor (Ibid.), and the intermittent procedure therefore was used to induce dependence in trained animals in the present study. Vapors were delivered on a 14 hours on/10 hours off schedule for 4 weeks before post-vapor testing began.
Beginning 4 weeks after the onset of vapor exposure, post-vapor alcohol self-administration testing was conducted 2 times per week during acute withdrawal (6-8 hours after cessation of daily vapor exposure). […]

In assay [2] the test system is nicotine self-administration. The experiment in a line: Nicotine self-administration, extended (23 hour) or limited (1 hour) access, nicotine deprivation effect. It is filed as in vivo, rat. Here is the method: The apparatus and detailed procedures for both intravenous catheterization and self-administration of nicotine have been described previously [O'dell et al., Pharmacol. Biochem. Behay. (2007) 86:346-353]. Adult male Wistar rats (280 to 330 g) were first allowed to nose-poke for food and water in 23 hours sessions prior to and after recovery from surgical implantation of jugular catheters. Following acquisition of these operant responses, rats were allowed to self-administer nicotine (0.03 mg/kg/100 μl/1 s, free base, fixed ratio=1 lever-response, time out=20 seconds) under different paradigms. Rats were allowed to acquire nicotine self-administration during daily 1 hour, “short-access” sessions (ShA, n=10) for at least 10 days. The CRF1 antagonist MPZP (0, 5, 10, 20 mg/kg) was then administered using a Latin square design, with 1-2 intervening treatment-free days. After completion of Study B, rats were allowed to self-administer nicotine during daily 23 hours, “long-access” sessions (LgA, n=8) for at least 10 days. Then, they were allowed to respond on a lever for nicotine self-administration in 4 four-day cycles, each separated by three intervening days of abstinence in their home cage. MPZP was administered before the first session following each cycle of abstinence using a Latin square design.

For assay [3], the system named is cocaine self-administration. The assay can be described thus: Cocaine self-administration in short access (ShA) and long access (LgA) rats. It is filed as in vivo, rat. Particulars: for cocaine intake compared with vehicle: 45 minutes before session.
Assay [4] relates to defensive burying model of active anxiety-like behavior. Conditions: doses similar to 3.6-27.5 mg/kg; Fekete et al. 2003; cited from earlier work.

The structures appear in SMILES notation. “Also recorded” adds a separate entry of the source.

`COCCN(CCOC)c1cc(C)nc2c(-c3ccc(OC)cc3C)c(C)nn12` [MPZP, N,N-bis(2-methoxyethyl)-3-(4-methoxy-2-methylphenyl)-2,5-dimethyl-pyrazolo[1,5-a]pyrimidin-7-amine]: the ED50 in assay [1] (Rattus norvegicus, sc, dependent animals, acute withdrawal (6-8 hours), s.c. 1 hour before 30 minute session, read-out: ED50, reduction of alcohol self-administration (sigmoidal dose-response fit)) stood at 10.7 mg/kg. The “alcohol self-administration (g/kg intake)” value in assay [1] (dependent animals, 20 mg/kg vs vehicle) is “dose-dependently reduced; also recorded: significantly reduced”; in assay [1] (nondependent animals), “not nondependent animals; also recorded: no effect”. Besides, the alcohol responses in assay [1] (dependent animals, 5 mg/kg) was determined as 72±14; in assay [1] (dependent animals, 10 mg/kg) it was 70±7; in assay [1] (dependent animals, 20 mg/kg), 47±7; in assay [1] (nondependent animals, 5 mg/kg) it was 37±5; in assay [1] (nondependent animals, 10 mg/kg) it was 32±5; in assay [1] (nondependent animals, 20 mg/kg), 33±4. Further, the “water self-administration (responses)” value in assay [1] (dependent or nondependent animals) is recorded as “no effect”. For the same compound, the “nicotine intake following abstinence” value in assay [2] (extended access (23 hour), 0, 5, 10, 20 mg/kg s.c., vs vehicle-treated) was “dose-dependently decreased”. Moreover, the “baseline nicotine self-administration responding” value in assay [2] (limited access to nicotine (1 hour), s.c.) is “had no effect; also recorded: lack of effect”. Further, the “slope of linear trend dose function on cocaine intake” value in assay [3] (LgA rats) is −0.601±0.176; in assay [3] (ShA rats) it was −0.254±0.106. Also, the “cocaine intake compared with vehicle” value in assay [3] (LgA rats, 10 mg/kg s.c.) is listed as “significant decrease”; in assay [3] (LgA rats, 27.5 mg/kg s.c.), “significant decrease”; in assay [3] (ShA rats, 27.5 mg/kg s.c.), “significant decrease”. The “anxiety-like behavior in the defensive burying test” value in assay [4] is given as “reduced anxiety-like behavior”.

These data come from patent US20100249138A1, “MPZP: A SMALL MOLECULE CORTICOTROPIN-RELEASING FACTOR TYPE 1 RECEPTOR (CRF1) ANTOGONIST” (priority 2007, published 2010).
